Counter-ions that a name gives are not always drawn. Like-named read-outs stand apart in the source and are kept apart here.
How the values were obtained:
[1] = system: Acinetobacter baumannii ATCC17978; test: Antimicrobial susceptibility testing: 90% growth inhibitory concentration (IC90) determination, Iso-Sensitest broth; assay type: cell-based
How it was run: (§1)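 Twofold serial dilutions (e.g. 10 to 0.02 μM final) were tested in Iso-Sensitest broth against ~5×10^(5) CFU/ml at 35±2 °C. OD600 was read every 20 min over 16 h. IC90 was derived from growth inhibition during the logarithmic phase.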

[2] = system: Acinetobacter baumannii ATCC17961; test: as above; assay type: cell-based; conditions: Acinetobacter baumannii
How it was run: as §1

[3] = Acinetobacter baumannii, ATCC17978, read-out: ATCC 17978 IC90
[4] = 90% growth inhibitory concentration, Acinetobacter baumannii ATCC17978, Iso-Sensitest broth, read-out: ATCC 17978 IC90
[5] = ATCC17961, 90% growth inhibitory concentration, Acinetobacter baumannii ATCC17961, Iso-Sensitest broth, read-out: ATCC 17961 IC90

| IC90 [2, 5] [nM] | Compound | also measured |
| --- | --- | --- |
|  | Cc1cc(NC(=O)c2ncc(-c3ccc(OCC#N)c(F)c3F)n2C)ccc1C(=O)N1CCC(C(=O)N2CC(N)C2)CC1 [Example 79, N-(4-(4-(3-aminoazetidine-1-carbonyl)piperidine-l-carbonyl)-3-methylphenyl)-5-(4-(cyanomethoxy)-2,3-difluorophenyl)-1-methyl-1H-imidazole-2-carboxamide 2,2,2-trifluoroacetate] | IC90 [1, 3]: 210 nM |
|  | Cn1c(-c2ccc(OCC#N)c(F)c2F)cnc1C(=O)Nc1ccc(C(=O)N2CCC(C(=O)N3CCS(=O)(=O)CC3)CC2)c(Cl)c1 [Example 75, N-(3-chloro-4-(4-(1,1-dioxidothiomorpholine-4-carbonyl)piperidine-1-carbonyl)phenyl)-5-(4-(cyanomethoxy)-2,3-difluorophenyl)-1-methyl-1H-imidazole-2-carboxamide] | IC90 [1, 4]: 100 nM |
|  | CCc1cc(NC(=O)c2ncc(-c3ccc(OC)cc3Cl)n2C)ccc1C(=O)N1CCN(CCN(C)C)CC1 [Example 277, 5-(2-chloro-4-methoxyphenyl)-N-(4-(4-(2-(dimethylamino)ethyl)piperazine-1-carbonyl)-3-ethylphenyl)-1-methyl-1H-imidazole-2-carboxamide] | IC90 [1, 4]: 2300 nM |
|  | Cn1c(-c2ccc(OCC#N)c(F)c2F)cnc1C(=O)Nc1ccc(C(=O)N2CCN(C(=O)[C@H]3CCCN3)CC2)c(Cl)c1 [Example 197, (R)-N-(3-chloro-4-(4-prolylpiperazine-1-carbonyl)phenyl)-5-(4-(cyanomethoxy)-2,3-difluorophenyl)-1-methyl 1H-imidazole-2-carboxamide 2,2,2-trifluoroacetate] | IC90 [1, 3]: 70 nM |
|  | Cn1c(-c2ccc(OCC#N)c(F)c2F)cnc1C(=O)Nc1ccc(C(=O)N2CCC(C(=O)N3CCSCC3)CC2)c(Cl)c1 [Example 76, N-(3-chloro-4-(4-(thiomorpholine-4-carbonyl)piperidine-1-carbonyl)phenyl)-5-(4-(cyanomethoxy)-2,3-difluorophenyl)-1-methyl-1H-imidazole-2-carboxamide] | IC90 [1, 4]: 210 nM |
|  | COc1ccc(-c2cnc(C(=O)Nc3ccc(C(=O)N4CCN(C(=O)[C@H]5C[C@@H](O)CN5)CC4)c(Cl)c3)n2C)c(Cl)c1F [Example 115, 5-(2-chloro-3-fluoro-4-methoxy-phenyl)-N-[3-chloro-4-[4-[(2R,4R)-4-hydroxypyrrolidine-2-carbonyl]piperazine-1-carbonyl]phenyl]-1-methyl-imidazole-2-carboxamide formate] | IC90 [1, 4]: 140 nM |
|  | CCc1cc(NC(=O)c2ncc(-c3ccc(OC(F)F)cc3)n2C)ccc1C(=O)N1CCN(CCN(C)C)CC1 [Example 275, 5-[4-(difluoromethoxy)phen-yl]-N-[4-[4-[2-(dimethylamino)ethyl]piperazine-1-carbonyl]-3-ethyl-phenyl]-1-methyl-imidazole-2-carboxamide] | IC90 [1, 4]: 1520 nM |
| 40 | COc1ccc(-c2cnc(C(=O)Nc3ccc(C(=O)N4CCN(C(=O)[C@H]5CCNC5)CC4)c(Cl)c3)n2C)c(F)c1F [Example 139, N-[3-chloro-4-[4-[(3S)-pyrrolidine-3-carbonyl]piperazine-1-carbonyl]phenyl]-5-(2,3-difluoro-4-methoxy-phenyl)-1-methyl-imidazole-2-carboxamide formate] |  |
| 6060 | CN(C)C(=O)c1ccc(-c2cnc(C(=O)Nc3ccc(C(=O)N4CCN(C(=O)C5CCNCC5)CC4)c(Cl)c3)n2C)c(F)c1F [Example 263, N-[3-chloro-4-[4-(piperidine-4-carbonyl)piperazine-1-carbonyl]phenyl]-5-[4-(dimethylcarbamoyl)-2,3-difluoro-phenyl]-1-methyl-imidazole-2-carboxamide formate] |  |
| 60 | COc1ccc(-c2cnc(C(=O)Nc3ccc(C(=O)N4CCC(OCC5CNC5)CC4)c(Cl)c3)n2C)c(F)c1F [Example 23, N-[4-[4-(azetidin-3-ylmethoxy)piperidine-1-carbonyl]-3-chloro-phenyl]-5-(2,3-difluoro-4-methoxy-phenyl)-1-methyl-imidazole-2-carboxamide formate] |  |
| 30 | Cn1c(-c2ccc(OC(F)F)c(F)c2F)cnc1C(=O)Nc1ccc(C(=O)N2CCC(C(=O)N[C@H]3CNC[C@H]3F)CC2)c(Cl)c1 [Example 44, 1-[2-chloro-4-[[5-[4-(difluoromethoxy)-2,3-difluoro-phenyl]-1-methyl-imidazole-2-carbonyl]amino]benzoyl]-N-[(3S,4R)-4-fluoropyrrolidin-3-yl]piperidine-4-carboxamide trifluoroacetate] |  |
| 50 | COc1ccc(-c2cnc(C(=O)Nc3ccc(C(=O)N4CCC(C(=O)NC[C@@H]5CCNC5)CC4)c(Cl)c3)n2C)c(F)c1F [Example 55, 1-[2-chloro-4-[[5-(2,3-difluoro-4-methoxy-phenyl)-1-methyl-imidazole-2-carbonyl]amino]benzoyl]-N-[[(3R)-pyrrolidin-3-yl]methyl]piperidine-4-carboxamide formate] |  |
| 150 | COc1ccc(-c2cnc(C(=O)Nc3ccc(C(=O)N4CCN(C(=O)CCOCCC(N)=O)CC4)c(Cl)c3)n2C)c(F)c1F [Example 279, N-(4-(4-(3-(3-Amino-3-oxopropoxy)propanoyl)piperazine-1-carbonyl)-3-chlorophenyl)-5-(2,3-difluoro-4-methoxyphenyl)-1-methyl-1H-imidazole-2-carboxamide] |  |
| 30 | Cn1c(-c2ccc(OC(F)F)c(F)c2F)cnc1C(=O)Nc1ccc(C(=O)N2CCN(C(=O)C[C@@H]3CCCN3)CC2)c(Cl)c1 [Example 224, (S)-N-(3-chloro-4-(4-(2-(pyrrolidin-2-yl)acetyl)piperazine-1-carbonyl)phenyl)-5-(4-(difluoromethoxy)-2,3-difluorophenyl)-1-methyl-1H-imidazole-2-carboxamide formate] |  |
| 50 | COc1ccc(-c2cnc(C(=O)Nc3ccc(C(=O)N4CCN(C(=O)C5CNC5)CC4)c(Cl)c3)n2C)c(F)c1F [Example 165, N-[4-[4-(azetidine-3-carbonyl)piperazine-1-carbonyl]-3-chloro-phenyl]-5-(2,3-difluoro-4-methoxy-phenyl)-1-methyl-imidazole-2-carboxamide formate] |  |
|  | Cn1c(-c2ccc(OCC#N)c(F)c2F)cnc1C(=O)Nc1ccc(C(=O)N2CCN(C(=O)N[C@@H]3CNC[C@H]3O)CC2)c(Cl)c1 [Example 7] | IC90 ([2]; ATCC17961, read-out: ATCC 17961 IC90): 70 nM |
| 90 | CN(C)C1CN(C(=O)C2CCN(C(=O)c3ccc(NC(=O)c4ncc(-c5ccc(OC(F)F)c(F)c5F)n4C)cc3Cl)CC2)C1 [Example 43, N-[3-chloro-4-[4-[3-(dimethylamino)azetidine-1-carbonyl]piperidine-1-carbonyl]phenyl]-5-[4-(difluoromethoxy)-2,3-difluoro-phenyl]-1-methyl-imidazole-2-carboxamide trifluoioacetate] |  |
| 50 | COc1ccc(-c2cnc(C(=O)Nc3ccc(C(=O)N4CCN(C(=O)C[C@H]5CCCN5)CC4)c(Cl)c3)n2C)c(F)c1F [Example 152, N-[3-chloro-4-[4-[2-[(2R)-pyrrolidin-2-yl]acetyl]piperazine-1-carbonyl]phenyl]-5-(2,3-difluoro-4-methoxy-phenyl)-1-methyl-imidazole-2-carboxamide formate] |  |
| 470 | COc1ccc(-c2cnc(C(=O)Nc3ccc(C(=O)N4CCC(C(=O)N5C[C@H]6CCN[C@H]6C5)C4)c(Cl)c3)n2C)c(F)c1F (stereo partly drawn) [Example 71, N-[4-[3-[(3aR,6aR)-2,3,3a,4,6,6a-hexahydro-1H-pyrrolo[3,4-b]pyrrole-5-carbonyl]pyrrolidine-1-carbonyl]-3-chloro-phenyl]-5-(2,3-difluoro-4-methoxy-phenyl)-1-methyl-imidazole-2-carboxamide formate] |  |
| 150 | Cn1c(-c2ccc(OC(F)F)c(F)c2F)cnc1C(=O)Nc1ccc(C(=O)N2CCC(C(=O)N3CCC(C(N)=O)C3)CC2)c(Cl)c1 (stereo not drawn) [Example 49, N-[4-[4-(3-carbamoylpyrrolidine-1-carbonyl)piperidine-1-carbonyl]-3-chloro-phenyl]-5-[4-(difluoromethoxy)-2,3-difluoro-phenyl]-1-methyl-imidazole-2-carboxamide trifluoroacetate] |  |
| 40 | Cn1c(-c2ccc(OC(F)F)c(F)c2F)cnc1C(=O)Nc1ccc(C(=O)N2CCC(C(=O)NC[C@@H]3CCNC3)CC2)c(Cl)c1 [Example 47, 1-[2-chloro-4-[[5-[4-(difluoromethoxy)-2,3-difluoro-phenyl]-1-methyl-imidazole-2-carbonyl]amino]benzoyl]-N-[[(3R)-pyrrolidin-3-yl]methyl]piperidine-4-carboxamide trifluoroacetate] |  |
| 80 | COc1ccc(-c2cnc(C(=O)Nc3ccc(C(=O)N4CCN(C(=O)C[C@@H]5CCNC5)CC4)c(Cl)c3)n2C)c(C(F)F)c1F [Example 261, N-[3-chloro-4-[4-[2-[(3S)-pyrrolidin-3-yl]acetyl]piperazine-1-carbonyl]phenyl]-5-[2-(difluoromethyl)-3-fluoro-4-methoxy-phenyl]-1-methyl-imidazole-2-carboxamide formate] |  |
| 40 | COc1ccc(-c2cnc(C(=O)Nc3ccc(C(=O)N4CCC(OCCN)CC4)c(Cl)c3)n2C)c(F)c1F [Example 22, N-[4-[4-(2-aminoethoxy)piperidine-1-carbonyl]-3-chloro-phenyl]-5-(2,3-difluoro-4-methoxy-phenyl)-1-methyl-imidazole-2-carboxamide formate] |  |
| 50 | Cc1c(-c2cnc(C(=O)Nc3ccc(C(=O)N4CCN(C(=O)C[C@@H]5CCNC5)CC4)c(Cl)c3)n2C)ccc(OCF)c1F [Example 259, N-[3-chloro-4-[4-[2-[(3S)-pyrrolidin-3-yl]acetyl]piperazine-1-carbonyl]phenyl]-5-[3-fluoro-4-(fluoromethoxy)-2-methyl-phenyl]-1-methyl-imidazole-2-carboxamide formate] |  |
